Source: US20240199601A1, “QUINONE COMPOUND AND PHARMACEUTICAL USE THEREOF” (NANJING SHUPENG LIFE SCIENCE CO., LTD., priority 2021, published 2024)

Tests used:
[1] = test system: inflammatory pain model (complete Freund's adjuvant); experiment: Inflammatory pain model (complete Freund's adjuvant), mechanical pain threshold; assay type: in vivo, SD rats; details: rats
Procedure: 4 SD rats with a body weight of 200-250 g were used as a blank control (NC), and normal saline was injected into the soles of the left feet of the rats. Inflammatory pain models of 18 rats were constructed, that is to say, 100 μL of a complete Freund's adjuvant was injected into soles of the left feet of the rats, mechanical pain thresholds of the left feet were detected by an ALMEMO2490 data collector 24 hours later, 2 rats with a pain threshold of greater than 15 were abandoned, and the other 16 rats were randomly divided into 4 groups with 4 rats in each group and then administered with water as a positive control (PC), SP3101 (20 mg/kg), PQQ (20 mg/kg) and ibuprofen (25 mg/kg/day) by gavage, respectively.

AMPK [2] = experiment: AMPK agonist test in RAW264.7 cells (protein hybridization, p-AMPK); assay type: cell-based; details: 0.1 μM, 24 hours
Procedure: (§1) RAW264.7 cells were inoculated into two six-well plates and enabled to grow to a density of about 90%, and SP3101 and SP3102 of different concentrations were added, respectively. 24 hours later, the cells were lysed with a radio immunoprecipitation assay (RIPA) lysis buffer, and the expression of proteins was detected by protein hybridization.
(§2) Phosphorylation of serine at the 127th site of AMPK is used as an activation marker. […] It can be seen that the compounds, represented by the SP3101 and the SP3102, of the present invention are used as an AMPK agonist.

[3] = test system: autophagy related protein (LC3B); experiment: LC3B expression in RAW264.7 cells (protein hybridization); assay type: cell-based; details: different concentrations, 24 hours
Procedure: as §1, §2

[4] = test system: MHV-A59 virus-induced lung inflammation; experiment: MHV-A59 virus-induced lung inflammation of mice; assay type: in vivo, C57BL/B6 mice; details: 20 mg/kg/day by gavage for 5 days
Procedure: As viral pneumonia of C57BL/B6 mice can be induced by nasal dropping of an MHV-A59 virus, the ability of SP3101 to inhibit virus-induced lung inflammation of mice is studied using such model.
An MHV-A59 virus strain was purchased from Suzhou Xishan Biotechnology Co., Ltd. at a PFU/ml of 1.4×10^7.
6-week-old mice were divided into 3 groups with 8 mice in each group. After anesthesia, the mice in a blank control group were administered with normal saline through the noses, and viral pneumonia models of the other two groups were constructed as follows: 10 μL of an MHV was injected into the nose of each mouse at a PFU of 1.4×10^5 with 5 μL into the left nostril and the right nostril, respectively, and about 3-6 hours later, the mice woke up. The mice in a model treatment group were administered with an SP3101 aqueous solution by gavage at a dose of 20 mg/kg body weight/day (mg/kg/day).
After continuous administration for 5 days, the mice were anesthetized and dissected 4 hours after the last administration, and the lungs were taken out, fixed with paraformaldehyde and stored for hematoxylin-eosin (HE) section staining.

[5] = test system: chronic constriction injury (CCI) model; experiment: Neuropathic pain, CCI model of the sciatic nerve, Von Frey; assay type: in vivo, B6 mice; details: 40 mg/kg by gavage, 1.5, 24 and 48 hours after administration, CCI mice, p<0.01
Excerpt: A CCI model was used for realizing neuropathic pain. 6- to 8-week-old B6 mice were anesthetized, shaved from the roots of the left legs to parts about 1-2 mm higher than the horizontal lines of the tail root bones, and cut horizontally to obtain small wounds. Muscles were bluntly separated by hemostatic forceps, the sciatic nerves were found and picked out with elbow tweezers, and 4-0 chromium-containing catgut sutures soaked in sterile normal saline in advance were picked out with another elbow tweezer. Three catgut sutures were penetrated through the sciatic nerve of each mouse and ligatured in an upper part, a middle part and a lower part at a distance of 1 mm, respectively at an appropriate intensity enabling surrounding muscles to have small and transient twitches. […]
On day 7 after surgery, mechanical pain thresholds of the mice were detected by using Von Frey fibrils. […] Then, the mice were stimulated again at an adjacent lower intensity, and the intensity interval of first positive responses and negative responses was recorded. […]
The test mice were divided into three groups: an unmolded group, a molded solvent group and a molded administration group. 0.5% methylcellulose was used as a solvent, SP3101 was used as a drug and administered at a dose of 40 mg/kg according to the body weight each time, and the pain thresholds were detected 1.5, 24, 48 and 72 hours after administration.

[6] = test system: cisplatin-induced hyperalgesia; experiment: Cisplatin chemotherapy pain model; assay type: in vivo, B6 mice; details: 40 mg/kg/day by gavage, cisplatin 2.3 mg/kg/day i.p., mice, Von Frey 0.4 g and 1.0 g
Excerpt: 20 12-week-old male B6 mice were selected and allowed to adapt to the environment for three days.
On DAY 1, basic mechanical pain thresholds were detected by using Von Frey fibrils, the mice with abnormal pain thresholds were abandoned (no abnormal mice were found in this batch), and the pain thresholds were basically about 1.4-2.0 g. According to the basic pain thresholds, a pain threshold of 0.4 g was used in this test, and a pain threshold of 1.0 g was used in subsequent detection Behaviors such as foot lifting and foot licking were identified as positive responses.
On DAYS 1-5, after the basic mechanical pain thresholds were detected, the mice were randomly divided into the following groups: (1) a model control group (n=10) and (2) an SP3101 group (n=10) administered by gavage at a dose of 40 mg/kg/day, where the mice in the model control group were administered with double distilled water by gavage, and the mice in the two groups were administered with cisplatin prepared with normal saline (2.3 mg/kg/day) by intraperitoneal injection 0.5 hour later.
On DAYS 6-10, the mice were only administered with SP3101 and water by gavage, and on DAY 7, the mechanical pain thresholds were detected.
On DAYS 11-15, the operations on DAYS 1-5 were repeated, and on DAY 15, the mechanical pain thresholds were detected. […]

AMPK [7] = experiment: AMPK phosphorylation level in a variety of cells; assay type: cell-based; details: 100 nM

In the case of `O=C1C(=O)c2nc(O)cc(C(=O)O)c2-c2[nH]ccc21` [SP3101, 4,5-dioxo-4,5-dihydro-1H-pyrrolo[2,3-f]quinone-7-hydroxy-9-carboxylic acid], the overall analgesic profile ([1]; CFA inflammatory pain model, oral) is reported as “rapid analgesic effect and a long-acting analgesic effect”, the “analgesic effect on day 5-7” value ([1]; single oral 20 mg/kg, compared with model group (PC)) is reported as “the analgesic effect is reduced” and the “duration of the analgesic effect” value ([1]; single oral dose (SP3101 20 mg/kg)) is reported as 72 h. For the same compound, the “analgesic effect 1.5 hours after oral administration” value ([1]; single oral dose (SP3101 20 mg/kg), mechanical pain threshold vs model group) was “obvious analgesic effect”, the “activation of AMPK (expression of p-AMPK)” value (AMPK [2]) was “obviously activate the AMPK” and the “expression of autophagy related protein (LC3B)” value [3] was “also increased”. The “inhibition of virus-induced lung inflammation (HE sections)” value [4] was “obvious effect of inhibiting virus-induced lung inflammation”, the “analgesic effect (Von Frey mechanical pain threshold)” value [5] was “obvious analgesic effect” and the “alleviation of cisplatin-induced hyperalgesia” value [6] was “obvious effect of alleviating”. The “phosphorylation level of the AMPK” value (AMPK [7]) was “significantly up-regulate”.
